Reference: PubChem BioAssay (NCI)
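Five compound concentrations were applied to cells in 96-well plates for 48 hours; endpoints were derived by simple linear interpolation of the resulting dose-response curve. TGI: total growth inhibition.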

Key:
Test in all cases: growth of human tumour cells (NCI), 48 h
[1] = tested on: 786-0 renal
[2] = tested on: LOX IMVI melanoma
[3] = tested on: NCI-H23 lung
[4] = tested on: UACC-257 melanoma
[5] = tested on: CAKI-1 renal
[6] = tested on: K-562 leukemia
[7] = tested on: SK-MEL-28 melanoma
[8] = tested on: HCT-15 colon
[9] = tested on: RXF 393 renal
[10] = tested on: IGROV1 ovarian
[11] = tested on: M19-MEL melanoma
[12] = tested on: SN12C renal
[13] = tested on: SNB-75 CNS
[14] = tested on: OVCAR-5 ovarian
[15] = tested on: EKVX NSCLC
[16] = tested on: OVCAR-3 ovarian
[17] = tested on: SK-MEL-5 melanoma
[18] = tested on: OVCAR-8 ovarian
[19] = tested on: HOP-18 NSCLC
[20] = tested on: SK-MEL-2 melanoma
[21] = tested on: COLO 205 colon
[22] = tested on: HOP-92 NSCLC
[23] = tested on: NCI-H460 lung
[24] = tested on: MALME-3M melanoma
[25] = tested on: M14 melanoma
[26] = tested on: HOP-62 NSCLC
[27] = tested on: SF-539 CNS
[28] = tested on: A549 NSCLC
[29] = tested on: UO-31 renal
[30] = tested on: HCT-116 colon
[31] = tested on: ACHN renal
[32] = tested on: SK-OV-3 ovarian
[33] = tested on: HL-60(TB) leukemia
[34] = tested on: DMS 273 small cell lung
[35] = tested on: NCI-H226 lung
[36] = tested on: OVCAR-4 ovarian
[37] = tested on: UACC-62 melanoma
[38] = tested on: RPMI-8226 leukemia
[39] = tested on: U251 CNS
[40] = tested on: DMS 114 small cell lung
[41] = tested on: HT29 colon
[42] = tested on: CCRF-CEM leukemia
[43] = tested on: HCC-2998 colon
[44] = tested on: MOLT-4 leukemia
[45] = tested on: KM12 colon
[46] = tested on: SNB-19 CNS
[47] = tested on: SF-295 CNS
[48] = tested on: TK-10 renal
[49] = tested on: DLD-1 colon
[50] = tested on: A498 renal
[51] = tested on: SF-268 CNS
[52] = tested on: RXF-631 renal
[53] = tested on: SNB-78 CNS
[54] = tested on: SW-620 colon
[55] = tested on: NCI-H522 lung
[56] = tested on: LXFL 529 NSCLC
[57] = tested on: KM20L2 colon
[58] = tested on: SR leukemia

O=C1CCC(O)=C1N=Nc1cc(Cl)cc(Cl)c1
TGI [1]: > 100 µM | TGI [2]: > 100 µM | TGI [3]: > 100 µM | TGI [4]: > 100 µM | TGI [5]: > 100 µM | TGI [6]: > 100 µM | TGI [7]: > 100 µM | TGI [8]: > 100 µM | TGI [9]: > 100 µM | TGI [10]: > 100 µM | TGI [11]: > 100 µM | TGI [12]: > 100 µM | TGI [13]: > 100 µM | TGI [14]: > 100 µM | TGI [15]: > 100 µM | TGI [16]: 98.2 µM | TGI [17]: > 100 µM | TGI [18]: > 100 µM | TGI [19]: > 100 µM | TGI [20]: > 100 µM | TGI [21]: > 100 µM | TGI [22]: > 100 µM | TGI [23]: > 100 µM | TGI [24]: > 100 µM | TGI [25]: > 100 µM | TGI [26]: > 100 µM | TGI [27]: > 100 µM | TGI [28]: > 100 µM | TGI [29]: > 100 µM | TGI [30]: > 100 µM | TGI [31]: > 100 µM | TGI [32]: > 100 µM | TGI [33]: > 100 µM | TGI [34]: > 100 µM | TGI [35]: > 100 µM | TGI [36]: > 100 µM | TGI [37]: > 100 µM | TGI [38]: > 100 µM | TGI [39]: > 100 µM | TGI [40]: > 100 µM | TGI [41]: > 100 µM | TGI [42]: > 100 µM | TGI [43]: > 100 µM | TGI [44]: > 100 µM | TGI [45]: > 100 µM | TGI [46]: > 100 µM | TGI [47]: > 100 µM | TGI [48]: > 100 µM | TGI [49]: > 100 µM | TGI [50]: 91 µM | TGI [51]: > 100 µM | TGI [52]: > 100 µM | TGI [53]: > 100 µM | TGI [54]: > 100 µM

COc1ccc(NC(=O)C2C(=O)N(c3ccc(OC)cc3)C(=O)/C2=N\N)cc1 (stereo not drawn)
TGI [1]: > 100 µM | TGI [3]: > 100 µM | TGI [4]: > 100 µM | TGI [6]: > 100 µM | TGI [7]: > 100 µM | TGI [8]: > 100 µM | TGI [9]: > 100 µM | TGI [10]: > 100 µM | TGI [11]: > 100 µM | TGI [12]: > 100 µM | TGI [55]: > 100 µM | TGI [14]: > 100 µM | TGI [15]: > 100 µM | TGI [17]: > 100 µM | TGI [18]: > 100 µM | TGI [19]: > 100 µM | TGI [20]: > 100 µM | TGI [21]: > 100 µM | TGI [22]: > 100 µM | TGI [23]: > 100 µM | TGI [24]: > 100 µM | TGI [25]: > 100 µM | TGI [26]: > 100 µM | TGI [56]: > 100 µM | TGI [27]: > 100 µM | TGI [28]: > 100 µM | TGI [29]: > 100 µM | TGI [30]: > 100 µM | TGI [31]: > 100 µM | TGI [33]: > 100 µM | TGI [37]: > 100 µM | TGI [57]: > 100 µM | TGI [39]: > 100 µM | TGI [40]: > 100 µM | TGI [41]: > 100 µM | TGI [42]: > 100 µM | TGI [43]: > 100 µM | TGI [44]: > 100 µM | TGI [45]: > 100 µM | TGI [46]: > 100 µM | TGI [47]: > 100 µM | TGI [48]: > 100 µM | TGI [49]: > 100 µM | TGI [58]: > 100 µM | TGI [50]: > 100 µM | TGI [51]: > 100 µM | TGI [52]: > 100 µM | TGI [53]: > 100 µM | TGI [54]: > 100 µM
